Key:
[1] = molecular target: T1, human OX1R (Homo sapiens, UniProt O43613); assay: Agonist activity against OX1R: intracellular calcium (Fura-2AM, FDSS7000) in CHOOX1R cells; format: cell-based; conditions: relative to orexin-A as full agonist (100%); for Emax at 0.1 µM / Emax at 1 µM / Emax at 10 µM: read-out: Response (%) OX1R
T1 construct: expressed in transfected cells; host or cells: CHO (Chinese hamster ovary) cells, line CHOOX1R, co-expressing NFAT-luciferase
T1 sequence (O43613 1-425): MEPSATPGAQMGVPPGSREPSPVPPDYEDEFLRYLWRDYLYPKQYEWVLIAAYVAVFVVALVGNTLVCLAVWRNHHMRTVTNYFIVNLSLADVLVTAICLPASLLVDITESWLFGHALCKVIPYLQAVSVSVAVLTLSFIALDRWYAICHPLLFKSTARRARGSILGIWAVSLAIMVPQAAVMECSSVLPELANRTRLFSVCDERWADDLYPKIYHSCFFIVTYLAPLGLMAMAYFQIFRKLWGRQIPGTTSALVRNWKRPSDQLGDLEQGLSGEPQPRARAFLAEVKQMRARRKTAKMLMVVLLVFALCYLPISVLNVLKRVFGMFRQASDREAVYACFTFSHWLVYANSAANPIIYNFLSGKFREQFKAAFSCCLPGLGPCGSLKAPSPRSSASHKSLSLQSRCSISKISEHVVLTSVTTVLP
Procedure, shortened: (§1)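 CHO cells stably expressing human OX1R or OX2R (plus NFAT-luciferase) were loaded with 5 μM Fura-2AM for 60 min, then given compound at 10^−7 to 10^−5 M final (1% DMSO). Calcium change read as 340/380 nm excitation fluorescence ratio; response expressed as % of orexin-A maximal activity at 10, 1.0 and 0.1 μM.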

[2] = molecular target: T2, human OX2R (Homo sapiens, UniProt O43614); assay: Agonist activity against OX2R: intracellular calcium (Fura-2AM, FDSS7000) in CHOOX2R cells; format: cell-based; conditions: relative to orexin-A as full agonist (100%)
T2 construct: expressed in transfected cells; host or cells: CHO (Chinese hamster ovary) cells, line CHOOX2R, co-expressing NFAT-luciferase
T2 sequence (O43614 1-444): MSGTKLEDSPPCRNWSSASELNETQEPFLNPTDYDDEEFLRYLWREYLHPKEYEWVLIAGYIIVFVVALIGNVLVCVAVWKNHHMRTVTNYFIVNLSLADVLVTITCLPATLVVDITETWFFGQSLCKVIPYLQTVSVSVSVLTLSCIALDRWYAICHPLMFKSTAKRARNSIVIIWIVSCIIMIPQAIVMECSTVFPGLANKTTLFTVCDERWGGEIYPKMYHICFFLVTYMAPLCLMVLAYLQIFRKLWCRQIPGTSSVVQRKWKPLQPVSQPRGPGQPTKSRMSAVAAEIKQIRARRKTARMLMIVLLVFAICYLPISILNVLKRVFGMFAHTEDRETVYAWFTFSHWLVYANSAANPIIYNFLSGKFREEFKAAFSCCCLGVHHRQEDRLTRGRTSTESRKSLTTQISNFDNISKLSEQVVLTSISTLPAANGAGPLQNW
Procedure, shortened: as §1

COc1ccc(-c2cccc(C(=O)N(C)C)c2)cc1S(=O)(=O)Nc1cccc(N(CCNC(=O)OC(C)(C)C)Cc2ccccc2)c1 [Example 91, tert-butyl (2-((benzyl)(3-(3′-(dimethylcarbamoyl)-4-methoxy-[1,1′-biphenyl]-3-ylsulfonamido)phenyl)amino)ethyl)carbamate]
Emax at 0.1 µM ([1]; test compound 0.1 μM): < 5% | Emax at 1 µM ([1]; test compound 1.0 μM): < 5% | Emax at 10 µM ([1]; test compound 10 μM): < 5% | Response (%) OX2R ([2]; test compound 0.1 μM): <5% | Response (%) OX2R ([2]; test compound 1.0 μM): <5% | Response (%) OX2R ([2]; test compound 10 μM): 35%

COc1ccc(-c2cccc(C(=O)N(C)C)c2)cc1S(=O)(=O)Nc1cccc(NCC(=O)NCc2cccc(C)c2)c1 [Example 92, 4′-methoxy-N,N-dimethyl-3′-(N-(3-((2-((3-methylbenzyl)amino)-2-oxoethyl)amino)phenyl)sulfamoyl)-[1,1′-biphenyl]-3-carboxamide]
Emax at 0.1 µM ([1]; test compound 0.1 μM): < 5% | Emax at 1 µM ([1]; test compound 1.0 μM): 6% | Emax at 10 µM ([1]; test compound 10 μM): 30% | Response (%) OX2R ([2]; test compound 0.1 μM): 35% | Response (%) OX2R ([2]; test compound 1.0 μM): 95% | Response (%) OX2R ([2]; test compound 10 μM): 95%

COc1ccc(-c2cccc(C(=O)N(C)C)c2)cc1S(=O)(=O)Nc1cccc(N2CCN(C(=O)c3cccc(C)c3)C2)c1 [Example 93, 4′-methoxy-N,N-dimethyl-3′-(N-(3-(3-(3-methylbenzoyl)imidazolidin-1-yl)phenyl)sulfamoyl)-[1,1′-biphenyl]-3-carboxamide]
Emax at 0.1 µM ([1]; test compound 0.1 μM): 10% | Emax at 1 µM ([1]; test compound 1.0 μM): 9% | Emax at 10 µM ([1]; test compound 10 μM): 20% | Response (%) OX2R ([2]; test compound 0.1 μM): 16% | Response (%) OX2R ([2]; test compound 1.0 μM): 77% | Response (%) OX2R ([2]; test compound 10 μM): 85%

C=CC(=O)NCCN(C(=O)C=C)c1cccc(NS(=O)(=O)c2cc(-c3cccc(C(=O)N(C)C)c3)ccc2OC)c1 [Example 94, 3′-(N-(3-(N-(2-acrylamidoethyl)acrylamido)phenyl)sulfamoyl)-4′-methoxy-N,N-dimethyl-[1,1′-biphenyl]-3-carboxamide]
Emax at 0.1 µM ([1]; test compound 0.1 μM): < 5% | Emax at 1 µM ([1]; test compound 1.0 μM): < 5% | Emax at 10 µM ([1]; test compound 10 μM): < 5% | Response (%) OX2R ([2]; test compound 0.1 μM): <5% | Response (%) OX2R ([2]; test compound 1.0 μM): <5% | Response (%) OX2R ([2]; test compound 10 μM): 46%

CNc1cccc(NS(=O)(=O)c2cc(-c3cccc(C(=O)N(C)C)c3)ccc2OC)c1 [Example 95, 4′-methoxy-N,N-dimethyl-3′-(N-(3-(methylamino)phenyl)sulfamoyl)-[1,1′-biphenyl]-3-carboxamide]
Emax at 0.1 µM ([1]; test compound 0.1 μM): < 5% | Emax at 1 µM ([1]; test compound 1.0 μM): < 5% | Emax at 10 µM ([1]; test compound 10 μM): < 5% | Response (%) OX2R ([2]; test compound 0.1 μM): <5% | Response (%) OX2R ([2]; test compound 1.0 μM): 11% | Response (%) OX2R ([2]; test compound 10 μM): 68%

COc1ccc(-c2cccc(C(=O)N(C)C)c2)cc1S(=O)(=O)Nc1cccc(N(C)C)c1 [Example 96, 3′-(N-(3-(dimethylamino)phenyl)sulfamoyl)-4′-methoxy-N,N-dimethyl-[1,1′-biphenyl]-3-carboxamide]
Emax at 0.1 µM ([1]; test compound 0.1 μM): < 5% | Emax at 1 µM ([1]; test compound 1.0 μM): < 5% | Emax at 10 µM ([1]; test compound 10 μM): < 5% | Response (%) OX2R ([2]; test compound 0.1 μM): <5% | Response (%) OX2R ([2]; test compound 1.0 μM): <5% | Response (%) OX2R ([2]; test compound 10 μM): 67%

COc1ccc(-c2cccc(C(=O)N(C)C)c2)cc1S(=O)(=O)Nc1cccc(/N=N/c2ccc(N(C)C)cc2CO)c1 [Example 97, (E)-3′-(N-(3-((4-(dimethylamino)-2-(hydroxymethyl)phenyl)diazenyl)phenyl)sulfamoyl)-4′-methoxy-N,N-dimethyl-[1,1-biphenyl]-3-carboxamide]
Emax at 0.1 µM ([1]; test compound 0.1 μM): < 5% | Emax at 1 µM ([1]; test compound 1.0 μM): < 5% | Emax at 10 µM ([1]; test compound 10 μM): 11% | Response (%) OX2R ([2]; test compound 0.1 μM): 25% | Response (%) OX2R ([2]; test compound 1.0 μM): 84% | Response (%) OX2R ([2]; test compound 10 μM): 108%

COc1ccc(-c2cccc(C(=O)N(C)C)c2)cc1S(=O)(=O)Nc1cccc(N=Nc2ccc(O)cc2NC(=O)OC(C)(C)C)c1 [Example 98]
Response (%) OX1R ([1]; test compound 0.1 μM): 8% | Response (%) OX1R ([1]; test compound 1.0 μM): 8% | Response (%) OX1R ([1]; test compound 10 μM): 9% | Response (%) OX2R ([2]; test compound 0.1 μM): 13% | Response (%) OX2R ([2]; test compound 1.0 μM): 11% | Response (%) OX2R ([2]; test compound 10 μM): 67%

COc1ccc(-c2cccc(C(=O)N(C)C)c2)cc1S(=O)(=O)Nc1cccc(N)c1 [Example 99]
Response (%) OX1R ([1]; test compound 0.1 μM): 8% | Response (%) OX1R ([1]; test compound 1.0 μM): 8% | Response (%) OX1R ([1]; test compound 10 μM): 9% | Response (%) OX2R ([2]; test compound 0.1 μM): 19% | Response (%) OX2R ([2]; test compound 1.0 μM): 14% | Response (%) OX2R ([2]; test compound 10 μM): 76%

COc1ccc(C(=O)NCc2ccccc2)cc1S(=O)(=O)Nc1cccc(NC(=O)Nc2cccc(N(C)C)c2)c1 [Example 100, N-benzyl-3-(N-(3-(3-(3-(dimethylamino)phenyl)ureido)phenyl)sulfamoyl)-4-methoxybenzamide]
Emax at 0.1 µM ([1]; test compound 0.1 μM): < 5% | Emax at 1 µM ([1]; test compound 1.0 μM): < 5% | Emax at 10 µM ([1]; test compound 10 μM): < 5% | Response (%) OX2R ([2]; test compound 0.1 μM): <5% | Response (%) OX2R ([2]; test compound 1.0 μM): 7% | Response (%) OX2R ([2]; test compound 10 μM): 49%

CCN(Cc1ccccc1)C(=O)c1ccc(OC)c(S(=O)(=O)Nc2cccc(NC(=O)Nc3cccc(N(C)C)c3)c2)c1 [Example 101]
Response (%) OX1R ([1]; test compound 0.1 μM): <5% | Response (%) OX1R ([1]; test compound 1.0 μM): <5% | Response (%) OX1R ([1]; test compound 10 μM): <5% | Response (%) OX2R ([2]; test compound 0.1 μM): 20% | Response (%) OX2R ([2]; test compound 1.0 μM): 89% | Response (%) OX2R ([2]; test compound 10 μM): 111%

CCN(Cc1cccnc1)C(=O)c1ccc(OC)c(S(=O)(=O)Nc2cccc(NC(=O)Nc3cccc(N(C)C)c3)c2)c1 [Example 102]
Response (%) OX1R ([1]; test compound 0.1 μM): <5% | Response (%) OX1R ([1]; test compound 1.0 μM): <5% | Response (%) OX1R ([1]; test compound 10 μM): <5% | Response (%) OX2R ([2]; test compound 0.1 μM): 61% | Response (%) OX2R ([2]; test compound 1.0 μM): 97% | Response (%) OX2R ([2]; test compound 10 μM): 100%

COc1ccc(C(=O)NCc2cccnc2)cc1S(=O)(=O)Nc1cccc(NC(=O)Nc2cccc(N(C)C)c2)c1 [Example 103]
Response (%) OX1R ([1]; test compound 0.1 μM): <5% | Response (%) OX1R ([1]; test compound 1.0 μM): <5% | Response (%) OX1R ([1]; test compound 10 μM): <5% | Response (%) OX2R ([2]; test compound 0.1 μM): 4% | Response (%) OX2R ([2]; test compound 1.0 μM): 27% | Response (%) OX2R ([2]; test compound 10 μM): 84%

COc1ccc(C(=O)NCCCNC(=O)OC(C)(C)C)cc1S(=O)(=O)Nc1cccc(NC(=O)Nc2cccc(N(C)C)c2)c1 [Example 104]
Response (%) OX1R ([1]; test compound 0.1 μM): 7% | Response (%) OX1R ([1]; test compound 1.0 μM): 6% | Response (%) OX1R ([1]; test compound 10 μM): 7% | Response (%) OX2R ([2]; test compound 0.1 μM): 7% | Response (%) OX2R ([2]; test compound 1.0 μM): 79% | Response (%) OX2R ([2]; test compound 10 μM): 99%

COc1ccc(C(=O)NCCNC(=O)OC(C)(C)C)cc1S(=O)(=O)Nc1cccc(NC(=O)Nc2cccc(N(C)C)c2)c1 [Example 105]
Response (%) OX1R ([1]; test compound 0.1 μM): 8% | Response (%) OX1R ([1]; test compound 1.0 μM): 7% | Response (%) OX1R ([1]; test compound 10 μM): 8% | Response (%) OX2R ([2]; test compound 0.1 μM): 9% | Response (%) OX2R ([2]; test compound 1.0 μM): 32% | Response (%) OX2R ([2]; test compound 10 μM): 92%

COc1ccc(C(=O)Nc2cccc(N(C)C)c2)cc1S(=O)(=O)Nc1cccc(NC(=O)Nc2cccc(N(C)C)c2)c1 [Example 106]
Response (%) OX1R ([1]; test compound 0.1 μM): 8% | Response (%) OX1R ([1]; test compound 1.0 μM): 7% | Response (%) OX1R ([1]; test compound 10 μM): 8% | Response (%) OX2R ([2]; test compound 0.1 μM): 9% | Response (%) OX2R ([2]; test compound 1.0 μM): 7% | Response (%) OX2R ([2]; test compound 10 μM): 46%

COc1ccc(C(=O)NCC(C)(C)CN(C)C)cc1S(=O)(=O)Nc1cccc(NC(=O)Nc2cccc(N(C)C)c2)c1 [Example 107]
Response (%) OX1R ([1]; test compound 0.1 μM): <5% | Response (%) OX1R ([1]; test compound 1.0 μM): <5% | Response (%) OX1R ([1]; test compound 10 μM): <5% | Response (%) OX2R ([2]; test compound 0.1 μM): 7% | Response (%) OX2R ([2]; test compound 1.0 μM): 9% | Response (%) OX2R ([2]; test compound 10 μM): 80%

From patent US10351522B2, “Sulfonamide derivative and pharmaceutically acceptable acid addition salt thereof” (UNIVERSITY OF TSUKUBA, priority 2015, dated 2019)
